Assay results taken from patent US12503455B2, “Nucleic acid-binding photoprobes and uses thereof” (Arrakis Therapeutics, Inc., priority 2017, dated 2025).

How the values were obtained:
[1] = system: Aptamer 21; test: LC-MS analysis of cross-linked RNA; type: binding
Experimental: Folded RNA (1.33 μM) was incubated with or without the photoaffinity probe (20 μM) in total 100 μL of buffer (20 mM TrisHCl pH 8, 100 mM KCl, 3 mM MgCl2) with 2% DMSO for 30 min at 37° C. to allow binding to come to equilibrium. The sample was then irradiated with long wave UV light (˜365 nm) for 30 min in a UV crosslinker (Fisher Scientific).
The RNA was then precipitated by adding 10 μL of 3 M sodium acetate pH 5 and 275 μL ethanol, cooling to −80° C. for 1 h, and then centrifuging at 20,500×g at 4° C. for 30 min. The RNA pellet was washed with 500 μL of 70% ethanol, air dried for 5 min, and then resuspended in 120 μL of water.
50 μL of RNA sample was injected onto Clarity 2.6 μm Oligo X-T column (50*2.1 mm, 60° C.), and the gradient and flowrate were as follows: 95% A/5% B to 75% A/25% B over 5 min, flowrate: 400 μL/min; 75% A/25% B to 30% A/70% B over 1 min, flowrate: 400 μL/min; 100% D over 1 min, flowrate: 500 μL/min; 95% A/5% B over 2 min, flowrate: 500 μL/min (A: 1% HFIPA (hexafluoroisopropyl alcohol), 0.1% DIEA (diisopropylethylamine), 1 μM EDTA (ethylenediamine tetraacetic acid) in H2O; B: 0.075% HFIPA, 0.0375% DIEA, 1 μM EDTA in 65/35 MeCN/H2O; D: 40/40/20% MeOH/MeCN/H2O); The LCMS instrument was a Thermo Finnigan LTQ, and ProMass deconvolution software coupled with Xcaliber were used for all data processing.

[2] = system: Aptamer 21; test: Surface plasmon resonance (SPR) binding to Aptamer 21; details: for binding to Aptamer 21 by SPR, separated enantiomers: 10 uM
Source text: Surface plasmon resonance (SPR) may be used to screen ligands and hook and click constructs for binding to a target RNA of interest. SPR is especially useful for monitoring biomolecular interactions in real time. Typically, target species and unrelated control are immobilized to a sensor chip, then analytes (compounds/fragments) are flowed over the surface. Binding of the compound to target species results in increase of SPR signal (association phase). Washing away bound compound with buffer results in a decrease of SPR signal (dissociation phase). Fitting of sensorgrams recorded at different compound concentrations is performed to an appropriate interaction model. The method allows extraction of kinetic parameters (ka, kd→KD). Requirements/limitations include that the ka/kd values be in reasonable ranges; and the target size must not be too large (<100 kDa). It is an excellent method to screen fragments and profile or validate hits. BC4000 may be used for primary screening (up to 4,000 data pts/week). Biacore T200 is suitable for hit profiling and validation.
In the PEARL-seq context, SPR allows monitoring binding of “hooks” to DNA/RNA aptamers. The target species is immobilized to sensor chip, analytes (i.e. hooks) are flowed over surface (association phase), DNA/RNA aptamer is flowed over surface (plateau phase), competitor compound is washed over surface (dissociation phase), thus yielding binding data.
Experiments were performed on a MASS-2 (Sierra Sensors) at 25° C. A high capacity amine chip was equilibrated with PBS. The chip was conditioned with alternating injections of 10 mM HCl and 10 mM NaOH in 1 M NaCl. The carboxymethylated dextran of the surface of the amine chip was activated for 7 minutes at a flow rate of 10 μL/min using a 1:1 volume ratio of 0.4 M 1-ethyl-3-(3-dimethylaminopropyl) carbodiimide (Sierra) and 0.1 M N-hydroxysuccinimide (Sierra). Neutravidin (70 μg/mL, Thermofisher) was injected over the activated surface for 10 minutes at a flow rate of 10 μl/min. Excess activated groups were blocked by an injection of 1 M ethanolamine, pH 8.5 (Sierra) for 7 minutes at a flow rate of 10 μl/min. A final injection of 10 mM NaOH in 1 M NaCl for 7 minutes at 10 μl/min was used to remove any unbound material to the chip. The immobilization reaction typically yielded approximately 12,000 resonance units (RU) of neutravidin. At least one spot in a channel was not injected with RNA and was used as a background control. Unrelated RNA was also used as a background control.
A 1 μM sample of biotin-aptamer 21 was prepared in RNAse free water, heated to 95° C. for 3 minutes, cooled on ice for 4 minutes, diluted with an equal volume 2× folding buffer (40 mM Tris-HCl, pH 8.0, 6 mM MgCl2, 200 mM KCl), and incubated at 37° C. for 30 minutes. The final concentration of RNA was 0.5 μM.
The MASS-2 was primed 2 times with 20 mM Tris-HCl, pH 8.0, 3 mM MgCl2, 100 mM KCl (Capture Buffer). RNA was injected over the neutravidin surface for 7 minutes at a flow rate of 10 μl/min. Capture levels typically reached approximately 3500-4500 of resonance units of aptamer 21.
Compounds were diluted 2-fold in 100% DMSO at a starting concentration of 500 μM.
The MASS-2 was primed 2 times with 20 mM Tris-HCl, pH 8.0, 3 mM MgCl2, 100 mM KCl, 1% DMSO (running buffer). Prior to testing compounds 3 injections of running buffer were used to equilibrate the sensor surface. […]

[3] = system: Aptamer 21; test: Competition between Aptamer 21 photoprobes and RNA-binding ligands (RT pausing)
Experimental: Aptamer 21 was either incubated with probe alone (ARK-581) or probe plus a 10-fold excess of RNA-binding ligand.
Both ARK-852 and ARK-139 inhibit the photocrosslinking of probes to Aptamer 21.
(§1) Folded RNA (1 μM) was incubated with the photoaffinity probe (10 μM) in total 25 μL of buffer (20 mM TrisHCl pH 8, 100 mM KCl, 3 mM MgCl2) with 2.5% DMSO for 30 min at 37° C. to allow binding to come to equilibrium. The sample was then irradiated with long wave UV light (˜365 nm) for 30 min in a UV crosslinker (Fisher Scientific).
(§2) A 3.75 μL aliquot of 10 μM reverse transcription primer was added to the cross-linked RNA sample, which was then incubated for 5 min at 65° C. and then cooled on ice. The sample was then diluted to a final volume of 60 μL and final buffer concentration of 1× Protoscript-II buffer (New England Biolabs), 0.5 mM dNTPs, 10 mM DTT, 0.4 U/μL RNase Inhibitor (New England Biolabs), and 10 U/μL Protoscript-II (New England Biolabs). The reaction was incubated at 45° C. for 2 h, 65° C. for 20 min, and then 4° C.
(§3) The RNA was hydrolyzed by the addition of 4.8 μL of 2.5 M NaOH and heating at 95° C. for 5 min. The reaction was quenched by the addition of 0.9 μL of acetic acid. The cDNA was precipitated by the addition of 6.6 μL of 3 M sodium acetate pH 5 and 181 μL ethanol, cooling to −80° C. for 1 h, and then centrifuging at 20,500×g at 4° C. for 30 min. The cDNA pellet was washed twice with 500 μL of 70% ethanol and then air dried for 5 min.
(§4) The cDNA pellet was resuspended in 12 μL of 1×TBE-urea sample loading buffer (Bio-Rad) and heated to 95° C. for 5 min. The sample was then run on a pre-cast 8.6×6.7 cm TBE-urea 10% PAGE gel (Bio-Rad) at 120 V until the lower bromophenol blue dye reached the bottom of the gel. The gel was stained with 1×SYBR-gold (Invitrogen) in 1×TBE buffer at room temperature for 20 min covered from light. The gel fluorescence was imaged on an Azure c600 instrument.

[4] = system: Aptamer 21; test: Reverse transcriptase pausing (drop-off) gel assay of photo-crosslinking to Aptamer 21; type: binding; details: FIG. 52
Experimental: A solution of RNA at 2 to 5 μM in nuclease-free water was heated to 95° C. for 3 min and then cooled on ice for 2 min. This solution was diluted with ½ volume of 3×RNA folding buffer (60 mM TrisHCl pH 8, 300 mM KCl, 9 mM MgCl2) and incubated at 37° C. for 20 min. Folding was carried out immediately before use of the RNA in each experiment. In cases where a mixture of RNA molecules was used in vitro the RNAs were folded separately and then combined prior to the probing experiment.
as §1, §2, §3, §4

With `COC(=O)C1=C(COCc2cn(CCOCCOCCNC(=O)c3ccc(N=[N+]=[N-])cc3)nn2)NC(c2ccncc2)=NC1c1ccc(F)cc1Cl` (stereo not shown) [ARK-581] the “covalent modification of the RNA by LC-MS” value [1] was 10%.
For `COC(=O)C1=C(COCc2cn(CCOCCOCCO)nn2)NC(c2ccncc2)=N[C@H]1c1ccc(F)cc1Cl` [ARK-701, (R)-methyl 4-(2-chloro-4-fluorophenyl)-6-(((1-(2-(2-(2-hydroxyethoxy)ethoxy)ethyl)-1H-1,2,3-triazol-4-yl)methoxy)methyl)-2-(pyridin-4-yl)-1,4-dihydropyrimidine-5-carboxylate], the “binding to Aptamer 21 by SPR, separated enantiomers” value [2] was “did bind”.
In the case of `COC(=O)C1=C(COCc2cn(CCOCCOCCO)nn2)NC(c2ccncc2)=N[C@@H]1c1ccc(F)cc1Cl` [ARK-702, (S)-methyl 4-(2-chloro-4-fluorophenyl)-6-(((1-(2-(2-(2-hydroxyethoxy)ethoxy)ethyl)-1H-1,2,3-triazol-4-yl)methoxy)methyl)-2-(pyridin-4-yl)-1,4-dihydropyrimidine-5-carboxylate], the “binding to Aptamer 21 by SPR, separated enantiomers” value [2] is reported as “did not bind”.
With `Cc1ccc(C(=O)N2Cc3ccccc3C[C@H]2C(N)=O)cc1NCc1c(F)ccc(O)c1F` [ARK-852] the “inhibition of photocrosslinking of ARK-581 to Aptamer 21” value ([3]; 10-fold excess of RNA-binding ligand over probe) was “efficiently inhibited”, the “inhibition of photocrosslinking of probes to Aptamer 21 (RT pausing competition assay)” value ([3]; FIG. 65) was “inhibit” and the “binding to Aptamer 21 by SPR” value [2] was “SPR-active”.
With `Cc1ncccc1C(=O)n1ccnc1` [NAI, 2-methylnicotinic acid imidazolide, reference compound] the “shortened sequences produced in PEARL-seq reverse transcriptase pausing gel assay” value [4] was “numerous shortened sequences”.
